Measured values taken from ChEMBL document CHEMBL1158433, “A novel class of H3 antagonists derived from the natural product guided synthesis of unnatural analogs of the marine bromopyrrole alkaloid dispyrin” (Bioorg Med Chem Lett, 2009).

target: T1, Histamine H3 receptor (Homo sapiens, UniProt Q9Y5N1); test: Displacement of [3H]SMT from human histamine H3 receptor
T1 sequence (Q9Y5N1 whole entry): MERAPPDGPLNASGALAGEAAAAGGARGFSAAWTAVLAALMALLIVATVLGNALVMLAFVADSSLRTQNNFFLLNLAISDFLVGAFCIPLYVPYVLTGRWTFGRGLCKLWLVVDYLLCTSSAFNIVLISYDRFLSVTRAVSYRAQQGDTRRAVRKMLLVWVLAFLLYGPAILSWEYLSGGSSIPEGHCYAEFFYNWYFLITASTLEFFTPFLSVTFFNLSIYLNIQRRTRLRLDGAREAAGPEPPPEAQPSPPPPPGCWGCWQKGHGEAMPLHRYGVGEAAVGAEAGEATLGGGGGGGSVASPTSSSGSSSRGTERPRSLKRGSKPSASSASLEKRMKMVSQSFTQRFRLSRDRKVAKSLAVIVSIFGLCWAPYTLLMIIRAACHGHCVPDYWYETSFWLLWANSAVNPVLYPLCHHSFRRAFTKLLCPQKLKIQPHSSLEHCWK

| Structure (SMILES) | Ki | IC50 |
| --- | --- | --- |
| CN1CCCC(COc2ccc(CCNC(=O)c3ccc[nH]3)cc2Br)C1 (centres undefined) | 1.52 µM | – |
| O=C(NCCc1ccc(OCCN2CCC(F)C2)c(Br)c1)c1cc(Br)cs1 (single isomer, unassigned; enantiomer 1) | 1.1 µM | 2.11 µM |
| O=C(NCCc1ccc(OCCN2CCOCC2)c(Br)c1)c1cc(Br)cs1 | 13.5 µM | 30.4 µM |
| CN1CCCC(COc2ccc(CCNC(=O)c3cc(Br)c[nH]3)cc2Br)C1 (centres undefined) | 1.33 µM | 2.94 µM |
| CN(C)CCOc1ccc(CCNC(=O)c2cc(Br)cs2)cc1Br | – | 1.52 µM |
| CN1CCCC(COc2ccc(CCNC(=O)c3cccn3C)cc2Br)C1 (centres undefined) | 1.65 µM | 3.62 µM |
| O=C(NCCc1ccc(OCCN2CCOCC2)c(Br)c1)c1cc(Br)c[nH]1 | 12.9 µM | 29.1 µM |
| CN(C)CCCOc1ccc(CCNC(=O)c2cccn2C)cc1Br | 1.76 µM | 3.99 µM |
| O=C(NCCc1ccc(OCCN2CCC(F)C2)c(Br)c1)c1cc(Br)cs1 (stereo in doubt; 18d) | 1.15 µM | 2.52 µM |
| Cn1cccc1C(=O)NCCc1ccc(OCCN2CCCC2)c(Br)c1 | – | 0.31 µM |
| CC1CCCN1CCOc1ccc(CCNC(=O)c2cc(Br)cs2)cc1Br (single isomer, unassigned; enantiomer 1) | 0.31 µM | 0.71 µM |
| O=C(NCCc1ccc(OCCN2CCCC2)c(Br)c1)c1cncs1 | 0.12 µM | 0.26 µM |
| O=C(NCCc1ccc(OCCN2CCCC2)c(Br)c1)c1nccs1 | 0.03 µM | 0.07 µM |
| CC1CCCN1CCOc1ccc(CCNC(=O)c2cc(Br)cs2)cc1Br (single isomer, unassigned; enantiomer 2) | 0.33 µM | 0.75 µM |
| O=C(NCCc1ccc(OCCN2CCOCC2)c(Br)c1)c1ccc[nH]1 | 26.4 µM | 59.2 µM |
| O=C(NCCc1ccc(OCCN2CCOCC2)c(Br)c1)c1ccc(Br)o1 | 32.5 µM | 73.2 µM |
| CN(C)CCOc1ccc(CCNC(=O)c2cccn2C)cc1Br | 2.13 µM | – |
| Cn1cccc1C(=O)NCCc1ccc(OCCN2CCOCC2)c(Br)c1 | 17.6 µM | 39.6 µM |
| CN1CCCC(COc2ccc(CCNC(=O)c3ccc(Br)o3)cc2Br)C1 (centres undefined) | – | 4.56 µM |
| O=C(NCCc1ccc(OCCN2CCCC2)c(Br)c1)c1cnco1 | 0.03 µM | 0.08 µM |
| CN(C)CCCOc1ccc(CCNC(=O)c2ccc[nH]2)cc1Br | 1.36 µM | – |
| CN1CCCC(COc2ccc(CCNC(=O)c3cc(Br)cs3)cc2Br)C1 (centres undefined) | 1.25 µM | 3.73 µM |
| CN(C)CCCOc1ccc(CCNC(=O)c2ccc(Br)o2)cc1Br | 2.29 µM | – |
| CN(C)CCOc1ccc(CCNC(=O)c2ccc[nH]2)cc1Br | 1.55 µM | – |

target: T1, Histamine H3 receptor; test: Ratio of dispyrin Ki to compound Ki for human histamine H3 receptor

| Structure (SMILES) | Ratio Ki |
| --- | --- |
| O=C(NCCc1ccc(OCCN2CCCC2)c(Br)c1)c1nccs1 | 33 |
| O=C(NCCc1ccc(OCCN2CCCC2)c(Br)c1)c1cc(Br)cs1 | 13 |

target: T1, Histamine H3 receptor; test: Ratio of dispyrin IC50 to compound IC50 for human histamine H3 receptor

| Structure (SMILES) | Ratio IC50 |
| --- | --- |
| O=C(NCCc1ccc(OCCN2CCCC2)c(Br)c1)c1nccs1 | 33 |
| O=C(NCCc1ccc(OCCN2CCCC2)c(Br)c1)c1cc(Br)cs1 | 13 |
